# Results published in PMC8201173, “Inhibition of Carbonic Anhydrase IX Promotes Apoptosis through Intracellular pH Level Alterations in Cervical Cancer Cells” (International Journal of Molecular Sciences, 2021).
# Legend:
# Type in all cases: cell-based
# HEK-293 = assay: WST-1 cytotoxicity assay, HEK-293; details: Homo sapiens
# Procedure: (§1) We used cancer and normal cell lines purchased from ATCC (American Type Culture Collection) and ECACC (European Collection of Authenticated Cell Cultures) and stored in liquid nitrogen. HT-29 (ATCC: HTB-38, colon adenoma cancer), HeLa (ATCC: CCL-2, cervix adenoma cancer cell), MDA-MB-231 (ATCC: HTB-26, breast adenoma cancer cell), and HEK-293 (ATCC: CRL-1573, embryonic kidney epithelial cell) cell lines were incubated in DMEM-F12 (Sigma-Aldrich, Germany), including 10% Fetal Bovine Serum (FBS), 100 μg/mL streptomycin/100 IU/mL penicillin, at 37 °C in an incubator containing 5% CO2, 95% air in a humid atmosphere. PNT-1A (ECACC: 95012614, normal prostate cells) cell line was incubated in RPMI-1640 medium, including %10 FBS, 100 μg/mL streptomycin/100 IU/mL penicillin, at 37 °C in an incubator containing 5% CO2, 95% air in a humid atmosphere.
# (§2) The cytotoxic effects of compound E were evaluated with WST kit (Roche, Basel, Switzerland) in accordance with manufacturer protocols. The cells were planted in 96 well plates (10^4 cells per well). After 24 h of incubation, compound E at doses of 0, 2.5, 5, 10, 25, 50, 100, and 200 μM was administrated on the cell lines for 24, 48, and 72 h, and 5-FU on the control cell line with the same doses. WST-1 reactive of 10 µL was added in all wells. Following 4 h incubation, the measurements were carried out in a plate reader (Spectramax M5, BioTek, VT, USA) at wavelengths of 450 and 630 nm. Consequently, graphs were created, and the IC50 values of compound E and 5-fluorouracil were calculated. Selectivity index (SI) can be defined as the ratio of the toxic concentration of a sample against its effective compound concentration.
# PNT1-A = assay: WST-1 cytotoxicity assay, PNT1-A; details: Homo sapiens, PNT1A
# Procedure: as §1, §2
# MDA-MB-231 = assay: WST-1 cytotoxicity assay, MDA-MB-231; details: Homo sapiens
# Procedure: (§3) We used cancer and normal cell lines purchased from ATCC (American Type Culture Collection) and ECACC (European Collection of Authenticated Cell Cultures) and stored in liquid nitrogen.
# (§4) The cells were planted in 96 well plates (10^4 cells per well). […] WST-1 reactive of 10 µL was added in all wells. Following 4 h incubation, the measurements were carried out in a plate reader (Spectramax M5, BioTek, VT, USA) at wavelengths of 450 and 630 nm.
# HT-29 = assay: WST-1 cytotoxicity assay, HT-29; details: Homo sapiens
# Procedure: as §3, §4
# HeLa cells = assay: WST-1 cytotoxicity assay, HeLa; details: Homo sapiens
# Procedure: as §3, §4
structure (smiles),measurement,setting,value
"O=c1[nH]cc(F)c(=O)[nH]1 [5-FU, 5-Fluorouracil, reference compound]",IC50,"HEK-293; HEK293, HEK-293, 24 h",44.6 ± 7.2 µM
same,IC50,"HEK-293; HEK293, HEK-293, 48 h",19.8 ± 2.3 µM
same,IC50,"HEK-293; HEK293, HEK-293, 72 h",14.5 ± 3.2 µM
same,IC50,PNT1-A; 24 h,23.1 ± 4.55 µM
same,IC50,PNT1-A; 48 h,21.2 ± 2.2 µM
same,IC50,PNT1-A; 72 h,17.5 ± 7.6 µM
same,IC50,"MDA-MB-231; MDA-MB-231, 24 h",42.6 ± 2.56 µM
same,IC50,"MDA-MB-231; MDA-MB-231, 48 h",37.9 ± 12.3 µM
same,IC50,"MDA-MB-231; MDA-MB-231, 72 h",21 ± 4.3 µM
same,IC50,"HT-29; HT-29, 24 h",47.3 ± 1.2 µM
same,IC50,"HT-29; HT-29, 48 h",23.4 ± 2.1 µM
same,IC50,"HT-29; HT-29, 72 h",19.3 ± 1.2 µM
same,IC50,HeLa cells; 24 h,37.8 ± 4.3 µM
same,IC50,HeLa cells; 48 h,31.2 ± 2.3 µM
same,IC50,HeLa cells; 72 h,14.7 ± 0.6 µM
